Our source for the melting point values is patent US7276527B2, “5-pyridyl-1,3-azole compounds, process for producing the same and use thereof” (Takeda Pharmaceutical Company Limited, priority 1999, dated 2007).

SMILES strings stand for the structures.

In general, melting point refers to the temperature, or range, at which the solid turns liquid. As to `Cc1cccc(-c2nc(-c3ccc(S(C)(=O)=O)cc3)sc2-c2ccnc(NC(=O)c3cccs3)c2)c1` [Example Compound 21-3, N-[4-[4-(3-methylphenyl)-2-(4-methylsulfonylphenyl)-1,3-thiazol-5-yl]-2-pyridyl]-2-thiophenecarboxamide], the melting point lay in the range of 199 to 201 °C. The value for `Cc1cccc(-c2nc(-c3ccc(S(C)(=O)=O)cc3)sc2-c2ccnc(NC(=O)c3ccc4ccccc4c3)c2)c1` [Example Compound 21-4, N-[4-[4-(3-methylphenyl)-2-(4-methylsulfonylphenyl)-1,3-thiazol-5-yl]-2-pyridyl]-2-naphthamide] was 231 to 233 °C. `Cc1cccc(-c2nc(-c3ccc(S(C)(=O)=O)cc3)sc2-c2ccnc(NCCCc3ccccc3)c2)c1` [Example Compound 21-6, N-[4-[4-(3-methylphenyl)-2-(4-methylsulfonylphenyl)-1,3-thiazol-5-yl]-2-pyridyl]-N-(3-phenylpropyl) amine] returned a melting point of 167 to 168 °C.

The molecule `Cc1cccc(-c2nc(-c3ccc(S(C)(=O)=O)cc3)sc2-c2ccnc(NCc3ccc4ccccc4c3)c2)c1` [Example Compound 21-7, N-[4-[4-(3-methylphenyl)-2-(4-methylsulfonylphenyl)-1,3-thiazol-5-yl]-2-pyridyl]-N-(2-naphthylmethyl)amine] yielded a melting point of 167 to 168 °C. In the case of `COc1ccc(CNc2cc(-c3sc(N)nc3-c3cccc(C)c3)ccn2)cc1` [Example Compound 23-1, N-[4-[2-amino-4-(3-methylphenyl)-1,3-thiazol-5-yl]-2-pyridyl]-N-(4-methoxybenzyl)amine] it was 183 to 184 °C; in that of `COc1cccc(CNc2cc(-c3sc(N)nc3-c3cccc(C)c3)ccn2)c1` [Example Compound 23-2, N-[4-[2-amino-4-(3-methylphenyl)-1,3-thiazol-5-yl]-2-pyridyl]-N-(3-methoxybenzyl)amine], 152 to 154 °C. In the case of `COc1ccccc1CNc1cc(-c2sc(N)nc2-c2cccc(C)c2)ccn1` [Example Compound 23-3, N-[4-[2-amino-4-(3-methylphenyl)-1,3-thiazol-5-yl]-2-pyridyl]-N-(2-methoxybenzyl)amine], the melting point lay in the range of 158 to 159 °C. The molecule `Cc1cccc(-c2nc(N)sc2-c2ccnc(NCc3ccc(Cl)cc3)c2)c1` [Example Compound 23-4, N-[4-[2-amino-4-(3-methylphenyl)-1,3-thiazol-5-yl]-2-pyridyl]-N-(4-chlorobenzyl)amine] displayed a melting point of 182 to 183 °C. As for `Cc1cccc(-c2nc(N)sc2-c2ccnc(NCc3cccc(Cl)c3)c2)c1` [Example Compound 23-5, N-[4-[2-amino-4-(3-methylphenyl)-1,3-thiazol-5-yl]-2-pyridyl]-N-(3-chlorobenzyl)amine], the melting point lay within 180 to 181 °C. The value for `Cc1cccc(-c2nc(N)sc2-c2ccnc(N[C@H](C)c3ccccc3)c2)c1` [Example Compound 23-6, (R)-N-[4-[2-amino-4-(3-methylphenyl)-1,3-thiazol-5-yl]-2-pyridyl]-N-(1-phenylethyl)amine] was 94 to 98 °C; that for `Cc1cccc(-c2nc(N)sc2-c2ccnc(N[C@@H](C)c3ccccc3)c2)c1` [Example Compound 23-7, (S)-N-[4-[2-amino-4-(3-methylphenyl)-1,3-thiazol-5-yl]-2-pyridyl]-N-(1-phenylethyl)amine] was 93 to 96 °C. In the case of `Cc1cccc(-c2nc(N)sc2-c2ccnc(N(C)Cc3ccccc3)c2)c1` [Example Compound 23-8, N-[4-[2-amino-4-(3-methylphenyl)-1,3-thiazol-5-yl]-2-pyridyl]-N-benzyl-N-methylamine] it was 138 to 140 °C; in that of `COc1cccc(-c2nc(N)sc2-c2ccnc(NCc3ccccc3)c2)c1` [Example Compound 24, N-[4-[2-amino-4-(3-methoxyphenyl)-1,3-thiazol-5-yl]-2-pyridyl]-N-benzylamine], 217 to 218 °C.
